Among the data in patent publication US20230012570A1, “BICYCLIC COMPOUND USED AS SELECTIVE ANDROGEN RECEPTOR MODULATOR” (MEDSHINE DISCOVERY INC., priority 2019, published 2023) are IC50 values, retold here.

Type in all cases: in vitro ADME
The target in one assay is T1, CYP1A2 (Homo sapiens, UniProt P05177).
T1 construct: Mixed human liver microsomes (HLM) were purchased from Corning Inc; tissue Corning Inc. or XenoTech, LLC. or other suppliers; host or cells: pooled human liver microsomes
T1 sequence (P05177 1-516): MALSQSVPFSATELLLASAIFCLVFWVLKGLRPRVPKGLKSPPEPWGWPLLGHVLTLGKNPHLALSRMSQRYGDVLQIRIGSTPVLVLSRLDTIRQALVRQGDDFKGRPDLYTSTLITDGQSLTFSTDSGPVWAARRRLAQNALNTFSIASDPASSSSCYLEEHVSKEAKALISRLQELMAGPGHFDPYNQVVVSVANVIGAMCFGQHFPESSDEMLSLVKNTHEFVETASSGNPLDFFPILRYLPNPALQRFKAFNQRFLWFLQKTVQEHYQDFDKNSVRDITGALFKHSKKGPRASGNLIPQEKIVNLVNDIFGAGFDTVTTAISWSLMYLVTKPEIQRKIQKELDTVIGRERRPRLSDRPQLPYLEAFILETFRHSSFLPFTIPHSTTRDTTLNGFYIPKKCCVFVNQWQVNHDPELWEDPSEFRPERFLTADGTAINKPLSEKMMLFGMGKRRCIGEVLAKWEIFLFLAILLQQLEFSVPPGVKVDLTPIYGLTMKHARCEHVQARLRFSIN
Kind of assay: Human liver microsomal CYP inhibition experiment, CYP1A2. The protocol: (§1) Experiment Embodiment 4: Human Liver Microsomal CYP Inhibition Experiment
(§2) The inhibitory effects of the test compound 3A and VK5211 on the activities of human liver microsomal cytochrome P450 isozymes (CYP1A2, CYP2C9, CYP2C19, CYP2D6 and CYP3A4) were determined.
(§3) Mixed human liver microsomes (HLM) were purchased from Corning Inc. (Steuben, New York, USA) or XenoTech, LLC. (Lenexa, Kans., USA) or other suppliers, and were stored at a temperature below −60° C. before use.
(§4) First, the test compound (10.0 mM) was gradient diluted to prepare working solution (100×final concentration), and the concentrations of the working solution were: 5.00, 1.50, 0.500, 0.150, 0.0500, 0.0150, 0.00500 mM, and a working solution of each positive inhibitor of P450 isozymes (CYP1A2, CYP2C9, CYP2C19, CYP2D6, and CYP3A4) and a specific substrate mixture thereof (5 in 1) were prepared at the same time; human liver microsomes stored in a refrigerator at a temperature lower than −60° C. were put on ice to thaw, and when all the human liver microsomes were dissolved, the microsomes were diluted with potassium phosphate buffer (PB) to prepare a working solution of a certain concentration (0.253 mg/mL). […] The concentration of metabolites produced by the probe substrate in the sample was determined by liquid chromatography-tandem mass spectrometry (LC-MS/MS) method. […]
For orientation: Liver microsomes are a subcellular fraction often used to study metabolism.

In a further assay the target is T2, CYP2C19 (Homo sapiens, UniProt P33261).
T2 construct: Mixed human liver microsomes (HLM) were purchased from Corning Inc; tissue Corning Inc. or XenoTech, LLC. or other suppliers; host or cells: pooled human liver microsomes
Kind of assay: Human liver microsomal CYP inhibition experiment, CYP2C19. Here is the method:
as §1, §2, §3, §4

For the next assay, the target named is T3, CYP2C9 (Homo sapiens, UniProt P11712).
T3 construct: Mixed human liver microsomes (HLM) were purchased from Corning Inc; tissue Corning Inc. or XenoTech, LLC. or other suppliers; host or cells: pooled human liver microsomes
Kind of assay: Human liver microsomal CYP inhibition experiment, CYP2C9. Here is the method:
as §1, §2, §3, §4

Another assay deals with T4, CYP3A4 (Homo sapiens, UniProt P08684).
T4 construct: Mixed human liver microsomes (HLM) were purchased from Corning Inc; tissue Corning Inc. or XenoTech, LLC. or other suppliers; host or cells: pooled human liver microsomes
Kind of assay: Human liver microsomal CYP inhibition experiment, CYP3A4. The protocol: as §1, §2, §3, §4

For another assay, the target named is T5, CYP2D6 (Homo sapiens, UniProt P10635).
T5 construct: Mixed human liver microsomes (HLM) were purchased from Corning Inc; tissue Corning Inc. or XenoTech, LLC. or other suppliers; host or cells: pooled human liver microsomes
Kind of assay: Human liver microsomal CYP inhibition experiment, CYP2D6. Here is the method: as §1, §2, §3, §4

T3 sequence (P11712 whole entry): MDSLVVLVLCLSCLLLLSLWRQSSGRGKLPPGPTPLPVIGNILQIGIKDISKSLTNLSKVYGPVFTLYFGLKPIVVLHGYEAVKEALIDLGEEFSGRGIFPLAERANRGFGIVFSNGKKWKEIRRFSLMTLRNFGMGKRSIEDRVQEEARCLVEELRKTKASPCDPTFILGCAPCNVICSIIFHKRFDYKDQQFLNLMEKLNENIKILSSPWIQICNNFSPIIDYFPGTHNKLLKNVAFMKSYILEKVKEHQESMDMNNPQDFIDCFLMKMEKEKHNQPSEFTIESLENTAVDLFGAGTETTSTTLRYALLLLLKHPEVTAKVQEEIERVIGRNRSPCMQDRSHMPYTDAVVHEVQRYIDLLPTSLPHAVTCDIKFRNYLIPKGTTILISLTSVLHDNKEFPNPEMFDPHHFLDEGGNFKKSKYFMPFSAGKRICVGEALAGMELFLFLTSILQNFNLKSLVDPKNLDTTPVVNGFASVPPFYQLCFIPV
T5 sequence (P10635 whole entry): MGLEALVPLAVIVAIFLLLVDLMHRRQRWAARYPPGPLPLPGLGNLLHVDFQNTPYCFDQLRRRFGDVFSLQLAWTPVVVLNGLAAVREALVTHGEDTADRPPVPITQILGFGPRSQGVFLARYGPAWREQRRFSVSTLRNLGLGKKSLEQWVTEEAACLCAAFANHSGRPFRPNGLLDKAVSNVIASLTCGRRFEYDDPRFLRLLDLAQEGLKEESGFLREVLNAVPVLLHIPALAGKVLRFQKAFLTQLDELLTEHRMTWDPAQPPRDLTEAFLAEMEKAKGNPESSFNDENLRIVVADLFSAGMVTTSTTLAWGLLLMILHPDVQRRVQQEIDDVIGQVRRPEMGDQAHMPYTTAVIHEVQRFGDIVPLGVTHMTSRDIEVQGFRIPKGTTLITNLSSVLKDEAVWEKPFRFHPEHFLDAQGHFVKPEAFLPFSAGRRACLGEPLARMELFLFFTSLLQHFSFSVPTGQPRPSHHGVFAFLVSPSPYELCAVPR
T4 sequence (P08684 whole entry): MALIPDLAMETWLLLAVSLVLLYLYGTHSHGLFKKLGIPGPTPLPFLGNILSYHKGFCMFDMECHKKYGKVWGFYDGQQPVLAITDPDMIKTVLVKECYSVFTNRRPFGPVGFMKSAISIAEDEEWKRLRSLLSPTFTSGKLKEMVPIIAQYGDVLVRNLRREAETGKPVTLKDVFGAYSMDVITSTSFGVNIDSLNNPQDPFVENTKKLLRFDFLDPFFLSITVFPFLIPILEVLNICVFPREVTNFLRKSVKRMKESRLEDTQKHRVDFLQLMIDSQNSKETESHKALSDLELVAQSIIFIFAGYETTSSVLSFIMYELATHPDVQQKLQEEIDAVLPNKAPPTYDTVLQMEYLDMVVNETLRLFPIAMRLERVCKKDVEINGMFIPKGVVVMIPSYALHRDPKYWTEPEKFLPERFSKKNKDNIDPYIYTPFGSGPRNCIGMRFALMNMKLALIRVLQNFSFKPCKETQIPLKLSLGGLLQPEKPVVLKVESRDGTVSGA
T2 sequence (P33261 whole entry): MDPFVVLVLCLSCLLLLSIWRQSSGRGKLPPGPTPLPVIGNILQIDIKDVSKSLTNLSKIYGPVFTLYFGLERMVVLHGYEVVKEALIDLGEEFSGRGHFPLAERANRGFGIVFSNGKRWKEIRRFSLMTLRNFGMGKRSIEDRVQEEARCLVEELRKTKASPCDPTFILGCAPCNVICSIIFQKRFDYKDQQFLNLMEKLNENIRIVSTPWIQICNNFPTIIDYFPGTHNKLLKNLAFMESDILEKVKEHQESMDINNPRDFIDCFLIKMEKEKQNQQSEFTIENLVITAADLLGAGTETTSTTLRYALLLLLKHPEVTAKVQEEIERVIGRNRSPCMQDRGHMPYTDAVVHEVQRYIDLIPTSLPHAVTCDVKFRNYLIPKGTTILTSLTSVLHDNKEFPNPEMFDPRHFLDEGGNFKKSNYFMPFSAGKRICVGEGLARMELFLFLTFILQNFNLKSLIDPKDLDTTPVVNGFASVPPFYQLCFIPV

Turning to `N#Cc1ccc(N2CCC[C@@H]2[C@@H](O)C(F)(F)F)cc1C(F)(F)F` [VK5211, reference compound], the IC50 – broadly, the concentration that gives 50% inhibition – against CYP1A2 worked out at 4.44 µM; against CYP2C19, 4.23 µM; at CYP2C9, 5.84 µM; on CYP3A4 it was 44.7 µM; at CYP2D6, 7.67 µM.
